Source: patent publication US6696417B1, “Skin and hair darkening composition” (Chesebrough-Pond's USA Co., division of Conopco, Inc., priority 1997, dated 2004)

Experiments:
tyrosinase [1] = test: In vitro enhancement of melanin formation (Example 3); format: biochemical; conditions: 18 nmoles polyamino acid; DL-DOPA, 20 nmoles lysozyme, 0.45 mg tyrosinase, acetate buffer pH 5.0; absorbance at 400 nm; control 0.120
Procedure: (§1) The assay conditions for the formation of melanin under in vitro conditions are as follows.
The control assay mixture contained 5 mmoles of DL-DOPA (Dihydroxy phenyl alanine), lysozyme 20 nmoles and 0.45 mg of tyrosinase in acetate buffer pH 5.0 in a test tube. In the experimental set 18 nmoles of the polyglutamate, a polyamino acid sequence with pI 2.5 or polyarginine pI 10.9 or polylysine pI 11.0 was used in addition to the other ingredients as defined in the control. The melanin formed was washed with the buffer, suspended in 1 N sodium hydroxide and dissolved by heating the sample at 60° C. for 5 minutes. The absorbance was measured at 400 nm.

tyrosinase [2] = test: In vitro enhancement of melanin formation (Example 1); format: biochemical
Source text: as §1
The control assay mixture contained 5 pmoles of DL-DOPA (Dihydroxy phenyl alanine), 20nmoles lysozyme and 3.2 units of tyrosinase in acetate buffer pH 5.0 in a test tube. A unit is defined as the amount of tyrosinase needed to convert 1 nmol DOPA in one minute. In the experimental set 11 nmoles of polylysine, a polyamino acid sequence with pI 11.0, was used in addition to the other ingredients as defined in the control. The melanin formed was washed with the acetate buffer, suspended in 1N sodium hydroxide and dissolved by heating the sample at 60° C. for 5 minutes. The absorbance was measured at 400 nm.

Row | Substance | Melanin formed A 400 (tyrosinase [1]) | Melanin formed A 400 (tyrosinase [2]; 11 nmoles polyamino acid, DL-DOPA, 20 nmoles lysozyme, 3.2 units tyrosinase, acetate buffer pH 5.0, absorbance at 400 nm, control 0.120) | melanin production (in words) (tyrosinase [2]; in presence of polylysine versus control, pH 5)
1 | polyarginine | 0.182 |  | 
2 | polyglutamate [reference compound] | 0.048 |  | 
3 | polylysine | 0.168 | 0.168 | significantly enhanced
